Data set [1] has as its target T1, Amine oxidase [flavin-containing] A (Rattus norvegicus, UniProt P21396).
T1 sequence (P21396 whole entry): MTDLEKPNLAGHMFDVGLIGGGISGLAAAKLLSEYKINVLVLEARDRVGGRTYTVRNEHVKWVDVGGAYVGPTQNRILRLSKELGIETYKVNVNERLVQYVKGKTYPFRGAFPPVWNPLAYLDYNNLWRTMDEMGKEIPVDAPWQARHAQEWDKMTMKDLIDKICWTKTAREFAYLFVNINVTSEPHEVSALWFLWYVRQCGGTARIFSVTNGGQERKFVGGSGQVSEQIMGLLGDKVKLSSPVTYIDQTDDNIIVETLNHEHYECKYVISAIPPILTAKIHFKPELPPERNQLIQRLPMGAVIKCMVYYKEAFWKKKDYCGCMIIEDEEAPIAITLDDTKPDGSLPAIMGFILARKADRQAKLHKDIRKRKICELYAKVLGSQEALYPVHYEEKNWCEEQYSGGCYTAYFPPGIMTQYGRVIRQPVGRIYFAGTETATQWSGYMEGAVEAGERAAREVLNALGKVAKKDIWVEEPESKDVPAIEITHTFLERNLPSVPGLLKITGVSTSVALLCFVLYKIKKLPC
As to the kind of experiment: Inhibitory activity against Monoamine oxidase A from rat brain mitochondria at 50 uM.

The target of data set [2] is T2, Amine oxidase [flavin-containing] B (Rattus norvegicus, UniProt P19643).
T2 sequence (P19643 whole entry): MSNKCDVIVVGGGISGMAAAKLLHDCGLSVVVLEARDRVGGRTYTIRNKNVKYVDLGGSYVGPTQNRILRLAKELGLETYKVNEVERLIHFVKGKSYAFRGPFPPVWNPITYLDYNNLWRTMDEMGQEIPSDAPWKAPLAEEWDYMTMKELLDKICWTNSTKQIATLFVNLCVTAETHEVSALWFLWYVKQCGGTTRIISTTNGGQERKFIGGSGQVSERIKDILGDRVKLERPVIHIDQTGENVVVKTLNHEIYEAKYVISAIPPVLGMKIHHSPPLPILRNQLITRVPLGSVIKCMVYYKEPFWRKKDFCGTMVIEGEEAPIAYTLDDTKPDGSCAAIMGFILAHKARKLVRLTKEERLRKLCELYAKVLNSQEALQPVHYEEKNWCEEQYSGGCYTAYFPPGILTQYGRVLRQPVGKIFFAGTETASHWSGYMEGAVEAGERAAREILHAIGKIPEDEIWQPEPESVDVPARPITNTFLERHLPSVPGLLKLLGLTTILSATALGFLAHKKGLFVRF
As to the kind of experiment: Inhibitory activity against Monoamine oxidase B from rat brain mitochondria at 50 uM.

Data set [3] can be described thus: Partition coefficient (logP) (cyclohexane). As to conditions: octanol/water.
A short description of data set [4]: Partition coefficient (logP). The conditions noted are these: octanol/water.
Data set [5] concerns the target T2, Amine oxidase [flavin-containing] B. As to the kind of experiment: Inhibitory activity against Monoamine oxidase B from rat brain mitochondria.
Data set [6] has as its target T1, Amine oxidase [flavin-containing] A. As to the kind of experiment: Inhibitory activity against Monoamine oxidase A from rat brain mitochondria at 100 uM.
Data set [7] deals with T2, Amine oxidase [flavin-containing] B. Nature of the data set: Inhibitory activity against Monoamine oxidase B from rat brain mitochondria at 100 uM.
For data set [8], the target named is T1, Amine oxidase [flavin-containing] A. Nature of the data set: Inhibitory activity against Monoamine oxidase A from rat brain mitochondria at 5 uM.
Data set [9] concerns the target T2, Amine oxidase [flavin-containing] B. Nature of the data set: Inhibitory activity against Monoamine oxidase B from rat brain mitochondria at 5 uM.
Data set [10] addresses T1, Amine oxidase [flavin-containing] A. As to the kind of experiment: Inhibitory activity against Monoamine oxidase A from rat brain mitochondria.
Data set [11] has as its target T2, Amine oxidase [flavin-containing] B.
Description: Inhibitory activity against Monoamine oxidase B from rat brain mitochondria at 125 uM
Data set [12] shares this target. As to the kind of experiment: Inhibitory activity against Monoamine oxidase B from rat brain mitochondria at 10 uM.
Data set [13] shares this target. As to the kind of experiment: Inhibitory activity against Monoamine oxidase B.
Data set [14] deals with T1, Amine oxidase [flavin-containing] A.
Description: Inhibitory activity against Monoamine oxidase A from rat brain mitochondria at 25 uM

Here are results for 24 compounds from ChEMBL document CHEMBL1131118, “Inhibition of monoamine oxidase-B by condensed pyridazines and pyrimidines: effects of lipophilicity and structure-activity relationships” (J Med Chem, 1998).

As a reminder, the inhibition is the relative decrease from the control value, in per cent. A higher inhibition goes with a strong effect. As a reminder, the logP is a log measure of how a compound divides between an organic and an aqueous phase. Low values mean lower lipophilicity, high ones higher lipophilicity. Usually IC50 stands for the concentration at which inhibition is half-maximal.

For `c1ccc(-c2cc3c(nn2)CCC3)cc1`, the inhibition at 50 µM in data set [1] stood at 44%; in data set [2] it was 12%.

As for `O=C1c2ccccc2-c2nnc(-c3cccc([N+](=O)[O-])c3)cc21`, the logP in data set [3] is 1.66; in [4] it was above 3. Besides, 0.631 µM corresponded to half-maximal inhibition in data set [5] (IC50).

Turning to `Cc1c(-c2ccccc2)nnc2c1C(=O)c1ccccc1-2`, the log partition coefficient (logP) in [3] is 2.16; in data set [4], above 3.

`O=C1c2ccccc2-c2nnc(-c3ccccc3[N+](=O)[O-])cc21`: the logP was 1.05 in [3] and 2.64 in data set [4].

`O=C1c2ccccc2-c2nnccc21`: the logP is -0.29 in data set [3] and 1.22 in data set [4].

Regarding `O=C1c2ccccc2-c2nnc(-c3ccc([N+](=O)[O-])cc3)cc21`, the logP was 2.34 in data set [3] and above 3 in data set [4].

Turning to `COc1ccc(-c2cc3c(nn2)-c2ccccc2C3=O)cc1`, the logP in data set [3] was 2.51; in [4], above 3.

For the compound `COc1cccc(-c2cc3c(nn2)-c2ccccc2C3=O)c1`, the logP is 2.83 in data set [3] and above 3 in [4].

Consider `COc1ccccc1-c1cc2c(nn1)-c1ccccc1C2=O`, for which the lipophilicity (logP) in data set [3] is 2.26; in data set [4], above 3.

Consider `O=C(c1ccccc1)c1ccnnc1`, for which the values for the logP in [3] and in data set [4] were -0.45 and 1.09, respectively. Also, the inhibition at 100 µM in data set [6] was 18%; in data set [7], 29%.

With `c1ccc(-c2cc3[nH]c4ccccc4c3nn2)cc1`, the inhibition at 5 µM in data set [8] and in data set [9] was 0% throughout.

With `O=c1[nH]c(=O)c2cc(-c3ccccc3)nnc2[nH]1`, the logP in data set [3] is -2.22; in [4], 1.56. Also, in [10], the IC50 turned out to be 16.4 µM. This compound also came in with an inhibition at 125 µM in data set [11] of 32%.

Take `O=C1c2ccccc2-c2nnc(-c3ccc(O)cc3)cc21`: the logP in data set [3] is 0.13; in [4], 2.88.

For the compound `O=C1c2ccccc2-c2nnc(-c3ccccc3O)cc21`, the logP worked out at 2.55 in [3] and 3.15 in data set [4].

As for `O=C1c2ccccc2-c2nncc(-c3ccccc3)c21`, the logP in data set [3] worked out at 1.4; in data set [4], 2.8.

As for `O=C1c2ccccc2-c2nnc(-c3ccccc3F)cc21`, the logP in data set [3] is 2.07; in data set [4], above 3.

Consider `O=C1c2ccccc2-c2cnc(-c3ccccc3)nc21`, for which the IC50 in data set [10] worked out at 2.37 µM; in [5], 11.6 µM.

Turning to `O=C1c2ccccc2-c2nnc(C(F)(F)F)cc21`, the results for the logP in [3] and in [4] were 0.7 and 2.21, respectively.

`O=C1c2ccccc2-c2nc(-c3ccccc3)ncc21`: the logP is 3.15 in data set [3] and above 3 in data set [4]. The IC50 is 8.39 µM in data set [10] and 11.5 µM in data set [5]. This compound registered an inhibition at 10 µM in data set [12] of 28%.

For `O=c1[nH]c(=O)c2cc(-c3ccc(C(F)(F)F)cc3)nnc2[nH]1`, the results for the inhibition at 5 µM in data set [8] and in [9] were 15% and 12.5%, respectively.

Consider `O=C1c2ccccc2-c2nnc(-c3ccc(F)cc3)cc21`, for which the log partition coefficient (logP) is 2.56 in data set [3] and above 3 in data set [4].

Turning to `O=C1CCCc2nnc(-c3ccccc3)cc21`, the results for the logP in data set [3] and in data set [4] were 0.6 and 2.05, respectively. Also, the IC50 in data set [10] is 59.1 µM; in data set [13], 74.1 µM; in data set [5], 74.8 µM.

In the case of `Cc1cc2c(nn1)-c1ccccc1C2=O`, the values for the logP in data set [3] and in [4] were -0.04 and 1.58, respectively.

For the compound `O=C1c2ccccc2-c2nnc(-c3ccccc3)cc21`, the lipophilicity (logP) is 2.34 in data set [3] and above 3 in data set [4]. Besides, testing at 25 µM in data set [14] gave an inhibition of 0%.
